Patent US9790211B2, “5-amino-quinoline-8-carboxamide derivatives as 5-HT4 receptor agonists” (SUVEN LIFE SCIENCES LIMITED, priority 2013, dated 2017)
pEC50: −log10 of the molar value. Where two headings read alike, the source gives them in different places.

Molecular target: T1, recombinant human 5-HT4 receptor (Homo sapiens, UniProt Q13639)
T1 construct: expressed in transfected cells
Assay: Determination of EC50 values for 5-HT4 receptor (CHO cells, pCRE-Luc reporter)
Type: cell-based
Conditions: for pEC50: 4 hours incubation
Protocol: Determination of EC50 Values for 5-HT4 Receptor
A stable CHO cell line expressing recombinant human 5-HT4 receptor and pCRE-Luc reporter system was used for cell-based assay. The assay offers a non-radioactive based approach to determine binding of a compound to GPCRs. In this specific assay, the level of intracellular cyclic AMP, which is modulated by activation, or inhibition of the receptor is measured. The recombinant cells harbor luciferase reporter gene under the control of cAMP response element.
The above cells were grown in 96 well clear bottom white plates in Hams F12 medium containing 10% fetal bovine serum (FBS). Prior to the addition of compounds or standard agonist, cells were serum starved overnight. Increasing concentrations of test compounds were added in OptiMEM medium to the cells. The incubation was continued at 37° C. in CO2 incubator for 4 hours. Medium was removed and cells were washed with phosphate buffered saline. The cells were lysed and luciferase activity was measured in a Luminometer. Luminescence units were plotted against the compound concentrations using Graphpad software.

[1] = CHO cells, human 5-HT4 receptor, luciferase reporter
[2] = CHO, CHO cells, human 5-HT4 receptor, luciferase reporter, read-out: Emax

T1 sequence (Q13639 whole entry): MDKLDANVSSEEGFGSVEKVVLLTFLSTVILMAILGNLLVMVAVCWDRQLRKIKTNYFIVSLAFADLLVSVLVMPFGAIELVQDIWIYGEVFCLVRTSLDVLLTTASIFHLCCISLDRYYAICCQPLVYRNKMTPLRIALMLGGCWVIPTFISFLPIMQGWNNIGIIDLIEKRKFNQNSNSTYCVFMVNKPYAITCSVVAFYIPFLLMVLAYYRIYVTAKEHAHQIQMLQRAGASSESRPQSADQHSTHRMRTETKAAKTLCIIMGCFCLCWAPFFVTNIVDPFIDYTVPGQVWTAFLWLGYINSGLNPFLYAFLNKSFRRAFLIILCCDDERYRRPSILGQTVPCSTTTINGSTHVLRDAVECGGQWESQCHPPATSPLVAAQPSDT

CC(C)(CN1CCC(CNC(=O)c2cc(Cl)c(N)c3cccnc23)CC1)C(=O)O [Example 32, 5-Amino-6-chloro-N-{[1-(2,2-dimethylproponic acid-3-yl)-4-piperidinyl]methyl}quinoline-8-carboxamide L(+)-tartarate]
Emax (CHO): 60%
pEC50 [1]: 8.92

CC(C)(O)CN1CCC(F)(CNC(=O)c2cc(Cl)c(N)c3cccnc23)CC1.Cl [Example 38, 5-Amino-6-chloro-N-{[4-fluoro-1-(2-hydroxy-2-methylpropyl)-4-piperidinyl]methyl} quinoline-8-carboxamide hydrochloride]
Emax [1]: 54%
pEC50 [1]: 8.89

5-Amino-6-chloro-N-{[3-(2-fluoro-2-methyl propyl)-3-azabicyclo[3.1.0]hex-6-yl]methyl} quinoline-8-carboxamide [Example 47]
Emax [1]: 79%
pEC50 [1]: 8.80

CC(C)(O)CN1CC2C(CNC(=O)c3cc(Cl)c(N)c4cccnc34)C2C1 (stereo not drawn) [Example 40, 5-Amino-6-chloro-N-{(3-(2-hydroxy-2-methylpropyl)-3-azabicyclo[3.1.0]hex-6-yl]methyl} quinoline-8-carboxamide L(+)-tartarate]
Emax (CHO): 63%
pEC50 [1]: 8.41

COCC(C)(C)CN1CCC(CNC(=O)c2cc(Cl)c(N)c3cccnc23)CC1 [Example 55, 5-Amino-6-chloro-N-{[1-(3-methoxy-2,2-dimethylpropyl)-4-piperidinyl]methyl}quinoline-8-carboxamide L(+)-tartarate]
Emax (CHO): 72%
pEC50 [1]: 10.05

COCCCN1CC2C(CNC(=O)c3cc(Cl)c(N)c4cccnc34)C2C1 (stereo not drawn) [Example 54, 5-Amino-6-chloro-N-{[3-(3-methoxypropyl)-3-azabicyclo[3.1.0]hex-6-yl]methyl}quinoline-8-carboxamide L(+)-tartarate]
Emax (CHO): 70%
pEC50 [1]: 9.15

Nc1c(Cl)cc(C(=O)NCC2(F)CCN(CC3CCOCC3)CC2)c2ncccc12 [Example 20, 5-Amino-6-chloro-N-{[4-fluoro-1-(tetrahydro-2H-pyran-4-ylmethyl)-4-piperidinyl]methyl}quinoline-8-carboxamide L(+)-tartarate]
Emax (CHO): 58%
pEC50 [1]: 8.96

Nc1c(Cl)cc(C(=O)NCC2CCN(CC3(O)CCOCC3)CC2)c2ncccc12 [Example 26, 5-Amino-6-chloro-N-{[1-(4-hydroxytetrahydro-2H-pyran-4-ylmethyl)-4-piperidinyl]methyl}quinoline-8-carboxamide]
Emax [2]: 65%

CC(C)(O)CN1CCC(CNC(=O)c2cc(F)c(N)c3cccnc23)CC1 [Example 41, 5-Amino-6-fluoro-N-{[1-(2-hydroxy-2-methylpropyl)-4-piperidinyl]methyl}quinoline-8-carboxamide L(+)-tartarate]
Emax (CHO): 64%
pEC50 [1]: 9.70

Nc1c(Cl)cc(C(=O)NCC2CCN(CCF)CC2)c2ncccc12 [Example 52, 5-Amino-6-chloro-N-{[1-(2-fluoroethyl)-4-piperidinyl]methyl}quinoline-8-carboxamide]
pEC50 [1]: 9.39
Emax [2]: 63%

COC(=O)C(C)(C)CN1CCC(CNC(=O)c2cc(Cl)c(N)c3cccnc23)CC1 [Example 31, 5-Amino-6-chloro-N-{[1-(2-methoxycarbonyl-2-methylpropan-1-yl)-4-piperidinyl]methyl}quinoline-8-carboxamide]
pEC50 [1]: 9.52
Emax [2]: 60%

CC(C)(O)CN1CCC(F)(CNC(=O)c2cc(F)c(N)c3cccnc23)CC1 [Example 42, 5-Amino-6-fluoro-N-{[4-fluoro-1-(2-hydroxy-2-methylpropyl)-4-piperidinyl]methyl} quinoline-8-carboxamide]
pEC50 [1]: 8.40
Emax [2]: 74%

Nc1c(Cl)cc(C(=O)NCC2CCN(CC3(F)CCOCC3)CC2)c2ncccc12 [Example 30, 5-Amino-6-chloro-N-{[1-(4-fluorotetrahydro-2-pyran-4-ylmethyl)-4-piperidinyl]methyl}quinoline-8-carboxamide L(+)tartarate]
Emax (CHO): 65%
pEC50 [1]: 10.00

Nc1c(Cl)cc(C(=O)NCC2(O)CCN(CC3CCOCC3)CC2)c2ncccc12 [Example 22, 5-Amino-6-chloro-N-{[4-hydroxy-1-(tetrahydro-2H-pyran-4-ylmethyl)-4-piperidinyl]methyl}quinoline-8-carboxamide L(+)-tartarate]
Emax (CHO): 86%
pEC50 [1]: 9.70

CC(C)CN1CC2C(CNC(=O)c3cc(Cl)c(N)c4cccnc34)C2C1 (stereo not drawn) [Example 8, 5-Amino-6-chloro-N-{[3-isobutyl-3-azabicyclo[3.1.0]hex-6-yl]methyl}quinoline-8-carboxamide L(+)-tartarate]
Emax (CHO): 87%
pEC50 [1]: 9.15

CC(C)(O)CN1CCC(CNC(=O)c2cc(Cl)c(N)c3cccnc23)CC1 [Example 35, 5-Amino-6-chloro-N-{[1-(2-hydroxy-2-methylpropyl)-4-piperidinyl]methyl}quinoline-8-carboxamide L(+)-tartarate]
Emax (CHO): 48%
pEC50 [1]: 10.00

Nc1c(F)cc(C(=O)NCC2CCN(CC3(O)CCOCC3)CC2)c2ncccc12 [Example 28]
Emax (CHO): 66%
pEC50 [1]: 10.00

Nc1c(Cl)cc(C(=O)NCC2C3CN(CCCO)CC23)c2ncccc12 (stereo not shown) [Example 51, 5-Amino-6-chloro-N-{[3-(3-hydroxypropyl)-3-azabicyclo[3.1.0]hex-6-yl]methyl} quinoline-8-carboxamide]
pEC50 [1]: 8.85
Emax [2]: 85%

CC(C)(F)CN1CCC(CNC(=O)c2cc(Cl)c(N)c3cccnc23)CC1 [Example 46, 5-Amino-6-chloro-N-{[1-(2-fluoro-2-methylpropyl)-4-piperidinyl]methyl}quinoline-8-carboxamide]
pEC50 [1]: 10.00
Emax [2]: 58%

CC(C)(O)CN1CCC(F)(CNC(=O)c2cc(Br)c(N)c3cccnc23)CC1 [Example 45, 5-Amino-6-bromo-N-{[4-fluoro-1-(2-hydroxy-2-methylpropyl)-4-piperidinyl]methyl} quinoline-8-carboxamide L(+)-tartarate]
Emax (CHO): 89%
pEC50 [1]: 7.93

Nc1c(Cl)cc(C(=O)NCC2C3CN(CC4CC4)CC23)c2ncccc12 (stereo not drawn) [Example 9, 5-Amino-6-chloro-N-{[3-cyclopropylmethyl-3-azabicyclo[3.1.0]hex-6-yl]methyl} quinoline-8-carboxamide L(+)-tartarate]
Emax (CHO): 87%
pEC50 [1]: 9.10

Nc1c(Cl)cc(C(=O)NCC2C3CN(CC4CCOC4)CC23)c2ncccc12 (stereo not shown) [Example 7, 5-Amino-6-chloro-N-{[3-(tetrahydro-3-furanylmethyl)-3-azabicyclo[3.1.0]hex-6-yl]methyl}quinoline-8-carboxamide]
pEC50 [1]: 9.24
Emax [2]: 71%

Nc1c(Cl)cc(C(=O)NC2CCN(CC3(O)CCOCC3)CC2)c2ncccc12 [Example 24, 5-Amino-6-chloro-N-[1-(4-hydroxytetrahydro-2H-pyran-4-ylmethyl)-4-piperidinyl] quinoline-8-carboxamide]
pEC50 [1]: 8.39
Emax [2]: 81%

Nc1c(Cl)cc(C(=O)NCC2(O)CCN(CC3(O)CCOCC3)CC2)c2ncccc12 [Example 29, 5-Amino-6-chloro-N-{[4-hydroxy-1-(4-hydroxytetrahydro-2H-pyran-4-ylmethyl)-4-piperidinyl]methyl}quinoline-8-carboxamide L(+)-tartarate]
Emax (CHO): 84%
pEC50 [1]: 10.00

Nc1c(Br)cc(C(=O)NCC2CCN(CC3CCOCC3)CC2)c2ncccc12 [Example 16, 5-Amino-6-bromo-N-{[1-(tetrahydro-2H-pyran-4-ylmethyl)-4-piperidinyl]methyl} quinoline-8-carboxamide L(+)-tartarate]
Emax (CHO): 62%
pEC50 [1]: 10.10

Nc1c(Cl)cc(C(=O)NCC2C3CN(CCO)CC23)c2ncccc12 (stereo not shown) [Example 50, 5-Amino-6-chloro-N-{[3-(2-hydroxyethyl)-3-azabicyclo[3.1.0]hex-6-yl]methyl} quinoline-8-carboxamide]
pEC50 [1]: 8.77
Emax [2]: 72%

Nc1c(Cl)cc(C(=O)NCC2CCN(CC3CCOCC3)C2)c2ncccc12 (stereo not drawn) [Example 12, 5-Amino-6-chloro-N-{[1-(tetrahydro-2H-pyran-4-ylmethyl)-3-pyrrolidinyl]methyl} quinoline-8-carboxamide L(+)-tartarate]
Emax (CHO): 83%
pEC50 [1]: 9.70

Nc1c(Cl)cc(C(=O)NCC2C3CN(CCF)CC23)c2ncccc12 (stereo not shown) [Example 53]
pEC50 [1]: 8.35
Emax [2]: 65%

Nc1c(Br)cc(C(=O)NCC2C3CN(CC4CCOCC4)CC23)c2ncccc12 (stereo not drawn) [Example 17, 5-Amino-6-bromo-N-{[3-(tetrahydro-2H-pyran-4-ylmethyl)-3-azabicyclo[3.1.0]hex-6-yl]methyl}quinoline-8-carboxamide L(+)-tartarate]
Emax (CHO): 72%
pEC50 [1]: 9.10

Nc1c(Cl)cc(C(=O)NC2CCN(CC3CCOCC3)CC2)c2ncccc12 [Example 3, 5-Amino-6-chloro-N-[1-(tetrahydro-2H-pyran-4-ylmethyl)-4-piperidinyl]quinoline-8-carboxamide]
pEC50 [1]: 8.60
Emax [2]: 79%

Nc1c(F)cc(C(=O)NCC2CCN(CC3CCOCC3)CC2)c2ncccc12 [Example 11, 5-Amino-6-fluoro-N-{[1-(tetrahydro-2H-pyran-4-ylmethyl)-4-piperidinyl]methyl} quinoline-8-carboxamide L(+)-tartarate]
Emax (CHO): 77%
pEC50 [1]: 9.52
